Source: the OPERA property sets (Mansouri et al. 2018)

conditions: not given

SMILES | boiling point [°C] | melting point [°C] | log10 vapour pressure (mmHg) | log10 Henry constant (atm·m³/mol) | ready biodegradability | log10 Koa | log10 biodegradation half-life (days) | log10 Koc (L/kg)
CC(C)c1ccc(Cl)cc1 | 198 | -12.3 |  |  |  |  |  | 
CCCC(Cn1cncn1)c1ccc(Cl)cc1Cl (stereo not drawn) |  | 58.5 | -5.56 |  |  |  |  | 
NS(=O)(=O)C(F)(F)C(F)(F)C(F)(F)C(F)(F)C(F)(F)C(F)(F)C(F)(F)C(F)(F)F |  |  | -0.606 |  |  |  |  | 
CCOP(=O)(SC(C)CC)N1CCSC1=O (stereo not drawn) |  |  | -5.38 | -9.76 |  |  |  | 
CB(C)Cl | 4.9 |  |  |  |  |  |  | 
CC(C)(C)C(O)(CCc1ccc(Cl)cc1)Cn1cncn1 (stereo not drawn) |  | 102 | -7.89 |  |  |  |  | 
CC(=O)Nc1ccc(C)cc1C |  | 129 |  |  |  |  |  | 
COc1ccc([C@@H]2CC(=O)c3c(O)cc(O[C@@H]4O[C@H](CO[C@@H]5O[C@@H](C)[C@H](O)[C@@H](O)[C@H]5O)[C@@H](O)[C@H](O)[C@H]4O)cc3O2)cc1O |  | 262 |  |  |  |  |  | 
CC(=O)CC1CCCCN1 (stereo not drawn) | 195 |  |  |  |  |  |  | 
SCc1ccccc1 | 194 | -30 | -0.384 |  |  |  |  | 
N#CSCSc1nc2ccccc2s1 |  |  |  |  | not readily biodegradable |  |  | 
C[C@]12CC[C@H]3[C@@H](CCC4=C(Cl)C(=O)CC[C@@]43C)[C@@H]1CC[C@@H]2O |  | 189 |  |  |  |  |  | 
CC1COC(=O)O1 (stereo not drawn) | 242 | -48.8 | -1.35 |  | readily biodegradable |  |  | 
O=C(C(=O)c1ccccc1)c1ccccc1 | 347 | 94.8 | -3.68 |  |  |  |  | 
CCCBr | 71.1 | -110 | 2.04 |  |  |  |  | 
C[C@]12CC[C@@H](O)C[C@@H]1CC[C@@H]1[C@@H]2[C@H](O)C[C@]2(C)C(=O)CC[C@@H]12 |  | 235 |  |  |  |  |  | 
N#Cc1ccccn1 | 224 | 29 |  |  |  |  |  | 
O=c1c(I)cn(CC(O)CO)cc1I (stereo not drawn) |  | 161 |  |  |  |  |  | 
Clc1ccc2ccc(Cl)c(Cl)c2c1 |  |  |  |  |  | 7.5 |  | 
OCCCCO | 235 | 20.4 | -1.98 |  | readily biodegradable |  |  | 
C=C=CCCl | 88 |  |  |  |  |  |  | 
C#C[C@]1(O)CC[C@H]2[C@@H]3[C@H](C)CC4=C(CCC(=O)C4)[C@H]3CC[C@@]21C |  | 167 |  |  |  |  |  | 
CCOC(=O)C(Br)CC (stereo not drawn) | 177 |  |  |  |  |  |  | 
c1ccc(OP(Oc2ccccc2)Oc2ccccc2)cc1 | 360 | 25 |  |  |  |  |  | 

SMILES | boiling point [°C] | melting point [°C] | log10 vapour pressure (mmHg) | log10 Henry constant (atm·m³/mol) | ready biodegradability | log10 Koa | log10 biodegradation half-life (days) | log10 Koc (L/kg)
O=C(O)c1c(Cl)c(Cl)c(Cl)c(Cl)c1Cl |  | 209 |  |  |  |  |  | 
COC(=O)/C=C/C(C)=C\C=C\C(C)=C\C=C\C=C(C)\C=C\C=C(C)\C=C\C(=O)O |  | 198 |  |  |  |  |  | 
FC(F)(F)C(F)(F)C(F)(F)C(F)(F)C(F)(F)C(F)(F)C(F)(F)C(F)(F)C(F)(F)C(F)(F)C(F)(F)C(F)(F)C(F)(F)C(F)(F)C(F)(F)C(F)(F)C(F)(F)C(F)(F)C(F)(F)C(F)(F)C(F)(F)C(F)(F)C(F)(F)C(F)(F)F |  | 189 |  |  |  |  |  | 
C=CC(C)CCCC (stereo not drawn) | 111 |  |  |  |  |  |  | 
CCC(C)C#N (stereo not drawn) | 125 |  |  |  |  |  |  | 
CS(=O)(=O)c1ccc(C(=O)C2C(=O)CCCC2=O)c(Cl)c1 |  | 139 | -7.43 |  |  |  |  | 
O=[N+]([O-])c1c(O)cccc1O |  | 82 |  |  | readily biodegradable |  |  | 
COc1ccc(C(C)=O)c(OC)c1OC | 296 | 15.8 |  |  |  |  |  | 
CC(=O)c1ccccc1O | 218 | 5 |  |  |  |  |  | 
COC(=O)[C@H](Cc1ccccc1)NC(=O)[C@@H](N)CC(=O)O |  | 246 |  |  |  |  |  | 
c1ccc(Cc2cccnc2)cc1 | 287 | 34 |  |  |  |  |  | 
N#Cc1ccc(Br)cc1 | 236 |  |  |  |  |  |  | 
Cc1cc2ccccc2nc1C | 263 | 68.5 |  |  |  |  |  | 
CCCCC(C)O (stereo not drawn) | 136 |  | 0.396 |  | not readily biodegradable |  |  | 
CCCCCCCC(N)=O | 239 | 108 |  |  |  |  |  | 
C[C@H](CCC(=O)O)[C@H]1CC[C@H]2[C@@H]3CC[C@@H]4C[C@H](O)CC[C@]4(C)[C@H]3C[C@H](O)[C@]12C |  | 177 |  |  |  |  |  | 
CCOC(=O)C(C)C(C)=O (stereo not drawn) | 187 |  |  |  |  |  |  | 
Cc1ccc(C)c(C)c1 | 169 | -43.8 | 0.322 | -2.21 | not readily biodegradable |  | 0.602 | 
NC(=S)Nc1ccccc1Cl |  | 146 |  |  |  |  |  | 
CCN(CC)C(=O)CC(C)C | 211 |  |  |  |  |  |  | 
O=Cc1ccc(F)cc1 | 182 | -10 |  |  |  |  |  | 
ON=C1CCCCC1 | 206 | 90 | -1.55 |  |  |  |  | 
CC(C)(C)CC(=O)Cl | 130 |  |  |  |  |  |  | 
CCn1c2ccccc2c2cc(N)ccc21 |  | 99 |  |  |  |  |  | 

SMILES | boiling point [°C] | melting point [°C] | log10 vapour pressure (mmHg) | log10 Henry constant (atm·m³/mol) | ready biodegradability | log10 Koa | log10 biodegradation half-life (days) | log10 Koc (L/kg)
CC(Oc1ccc(Oc2cnc3cc(Cl)ccc3n2)cc1)C(=O)OCC1CCCO1 (stereo not drawn) |  | 64 |  |  |  |  |  | 
O=C(O)CN(CCN(CC(=O)O)CC(=O)O)CC(=O)O |  |  | -11.8 |  | not readily biodegradable |  |  | 
ClCc1ccccc1 | 179 | -45 | 0.0899 |  | readily biodegradable |  |  | 
CC(C)(Sc1cc(C(C)(C)C)c(O)c(C(C)(C)C)c1)Sc1cc(C(C)(C)C)c(O)c(C(C)(C)C)c1 |  | 125 |  |  |  |  |  | 
CCC(C)Nc1c([N+](=O)[O-])cc(C(C)(C)C)cc1[N+](=O)[O-] (stereo not drawn) |  | 60 | -4.9 |  |  |  |  | 3.98
CNCC(O)c1ccc(O)cc1 (stereo not drawn) |  | 184 |  |  |  |  |  | 
CCOC(=O)C1OC1(C)c1ccccc1 (stereo not drawn) | 274 |  |  |  |  |  |  | 
CN1CCN(C(c2ccccc2)c2ccccc2)CC1 |  | 106 |  |  |  |  |  | 
Cc1ccc(Cl)cc1Cl | 201 | -13.5 | -0.339 |  | not readily biodegradable |  |  | 
CCC1C(C)=NN=C(c2ccc(OC)c(OC)c2)c2cc(OC)c(OC)cc21 (stereo not drawn) |  | 156 |  |  |  |  |  | 
NC(=O)c1cc([N+](=O)[O-])cc([N+](=O)[O-])c1 |  | 184 |  |  |  |  |  | 2.31
Clc1cc2c(Cl)c(Cl)c(Cl)cc2c(Cl)c1Cl |  |  | -6.46 |  |  | 9.58 |  | 
CC[Si](O)(CC)CC | 154 |  |  |  |  |  |  | 
CCc1cc2cc(OC)c(OC)cc2c(Cc2ccccc2)n1 |  | 78.5 |  |  |  |  |  | 
O=P1(NCCCl)OCCCN1CCCl (stereo not drawn) |  | 40 |  |  |  |  |  | 
COc1ccc(/C=N/NC(=O)c2ccncc2)cc1OC |  | 189 |  |  |  |  |  | 
CC(C)(C)I | 100 | -38.2 |  |  |  |  |  | 
C#CC(C)(C)NC(=O)c1ccc(Br)cc1 |  |  |  |  |  |  |  | 2.01
CC(=O)c1cccc(N)c1 | 290 | 98.5 |  |  |  |  |  | 
CC(Br)C(Br)Br (stereo not drawn) | 200 |  |  |  |  |  |  | 
CCCCI | 131 | -103 | 1.14 |  |  |  |  | 
C/C=C(/C)CCC | 95.6 | -118 |  |  |  |  |  | 
CC(C)N1C(=O)c2ccccc2[N]([Na])S1(=O)=O |  |  |  |  |  |  |  | 1.54
O=C(Cl)C(Cl)=C(Cl)Cl | 158 |  |  |  |  |  |  | 

SMILES | boiling point [°C] | melting point [°C] | log10 vapour pressure (mmHg) | log10 Henry constant (atm·m³/mol) | ready biodegradability | log10 Koa | log10 biodegradation half-life (days) | log10 Koc (L/kg)
CCCCOB(OCCCC)OCCCC | 234 |  | -0.279 |  |  |  |  | 
CC1(C)CCCCC1=O | 172 | -20.5 |  |  |  |  |  | 
Cc1cc2nc3c(=O)[nH]c(=O)nc-3n(C)c2cc1C |  | 320 |  |  |  |  |  | 
CCC(C)=NO[Si](C)(ON=C(C)CC)ON=C(C)CC |  |  |  |  | not readily biodegradable |  |  | 
COCN(COC)c1nc(N(COC)COC)nc(N(COC)COC)n1 |  |  |  |  | not readily biodegradable |  |  | 
CC(C)C(=O)OCC(C)(C)C(O)C(C)C (stereo not drawn) |  |  |  |  | readily biodegradable |  |  | 
Cc1ccc(SSc2ccc(C)cc2)cc1 |  | 47.5 |  |  |  |  |  | 
FC1(F)C(F)(F)C(F)(F)C1(F)F | -5.9 | -40.1 | 3.37 |  |  |  |  | 
Ic1cn[nH]c1 |  | 109 |  |  |  |  |  | 
CC(=O)c1ccncc1 | 212 | 16 |  | -7.2 |  |  |  | 
CNCCS(=O)(=O)O |  | 242 |  |  | readily biodegradable |  |  | 
C=C(C)C(=O)OC | 100 | -48 | 1.59 |  | readily biodegradable |  |  | 
O=C1C[C@H]2CCCC[C@H]2C1 | 222 | -1 |  |  |  |  |  | 
CC(C)Cc1ccccc1 |  |  |  |  |  |  | 1 | 
CC(Cl)=CCCl | 131 |  |  |  |  |  |  | 
C[Si](C)(C)Cc1ccccc1 | 190 |  |  |  |  |  |  | 
CP(=O)(c1ccccc1)c1ccccc1 |  | 113 |  |  |  |  |  | 
ClC=C(Cl)C(Cl)Cl | 162 |  |  |  |  |  |  | 
C#C[C@]1(O)CC[C@H]2[C@@H]3CCC4=CC(=O)CCC4=C3C=C[C@@]21C |  | 169 |  |  |  |  |  | 
COC(=O)c1cccc(Cl)c1 |  | 21 |  |  |  |  |  | 
COc1cc(CC#N)ccc1O |  | 56.5 |  |  |  |  |  | 

same assay, conditions: fish

SMILES | log10 biotransformation half-life (days) | log10 BCF
CCCC(Cn1cncn1)c1ccc(Cl)cc1Cl (stereo not drawn) | 1.19 | 
CC(C)(C)C(O)(CCc1ccc(Cl)cc1)Cn1cncn1 (stereo not drawn) | 0.77 | 
N#CSCSc1nc2ccccc2s1 | -1.01 | 2.32
Cc1ccc(C)c(C)c1 | -0.31 | 2.08
CCC(C)CCCC(C)CCCC(C)C (stereo not drawn) | 1.36 | 
COCN(COC)c1nc(N(COC)COC)nc(N(COC)COC)n1 |  | 0.54
